Experiments:
[1] = test system: Langendorff perfused rat heart; assay: Ex vivo Langendorff perfused rat heart ischemia-reperfusion, creatine phosphokinase (CPK) release
Method: In accordance with a well-established ex vivo rat heart model for ischemia-reperfusion (see, e.g., U.S. Publication Nos. 20080167247, 20080153926, 20070299012, and 20060293237, which are herein incorporated by reference) and the method described in Example 1, hearts were removed from animals (rats) and subjected to a normoxia or an IR protocol, both depicted in FIG. 1A. The normoxia regimen comprised exposing hearts to 70 minutes of a normal oxygen state. The IR (ischemia/reperfusion) regimens comprised subjecting hearts to 20 minutes of normoxia, followed by 35 minutes of ischemia, followed by 15 minutes of reperfusion. […] The amount of necrotic cell death was then determined by measuring the release of creatine phosphokinase (CPK) into the buffer perfusate during reperfusion, which served as an indicator of ischemic damage.
(§1) Rat hearts (Wistar, 250-300 g) were excised and cannulated on a Langendorff apparatus via the aorta. Briefly, retrograde perfusion was carried out with a constant coronary flow rate of 10 ml/min with oxygenated Krebs-Henseleit buffer containing 120 mM NaCl, 5,8 mM KCl, 25 mM NaHCO3, […], 1.2 mM MgSO4, 1.2 mM CaCl2, and 10 mM dextrose, pH 7.4 at 37° C. After a 20 min equilibration period, hearts were subjected to a 35 min of no-flow, global ischemia followed by 15 min of reperfusion. Control hearts were perfused with normoxic Krebs buffer and were time-matched for the experimental period. […] At the end of the 15 mins reperfusion period, hearts were rapidly transferred to ice-cold homogenization buffer and subcellular fractions separated by differential centrifugation as described below.
Necrotic damage was determined by measurement of the release of the cardiac myocyte cytosolic enzyme, creatine phosphokinase (CPK), into the effluent (FIG. 1B). The levels are expressed in arbitrary CPK units.
Isolated rat hearts were perfused with oxygenated Krebs-Henseleit solution comprised of NaCl ([…]); KCl ([…]); NaHCO3 ([…]); NaH2O4 ([…]); MgSO4 (1.2 nmol/L); CaCl2 (1.0 nmol/L); and dextrose (10 nmol/L), pH 7.4 at 37 C. After a 10 minute equilibration period, the hearts were treated with the ψεHSP90 peptide or control buffer solution. As depicted in FIG. 5A, Perfusion was maintained at a constant flow of 10 mL/min with Krebs-Henseleit solution containing 1 μM of the appropriate peptide. The Langendorff method employs retrograde flow […] and into the coronary arteries, bypassing the pulmonary arteries. To induce global ischemia, flow was interrupted for 35 minutes. After the ischemic event, the hearts were reperfused with Krebs-Henseleit solution for 15 minutes.
During reperfusion, ischemia-induced cell damage was determined by measuring the activity of creatine phosphokinase (CPK) in the coronary perfusate, carried out using a standard assay kit (Equal Diagnostics, CT, USA). The ψεHSP90 peptide was perfused in Langendorf mode for 10 minutes before and 10 minutes after the ischemic period (1 micromolar) and myocardial injury was assayed by the release of CPK into the effluent during reperfusion (FIG. 5B). Similar to the previous results, hearts that were subjected to IR had high levels of CPK in the effluent; however, perfusion with ψεHSP90 peptide decreased CPK release by 47% (n4; p<0.05; FIG. 5B). Translocation of εPKC and the related isoform δPKC to the mitochondria and plasma membrane was determined by western blotting using εPKC and δPKC antibodies (Santa Cruz Biotechnology) (FIG. 5C). […] Physical interaction between PKCε and HSP90 was determined by co-immunoprecipitation of PKCε and HSP90 in the mitochondrial fraction in hearts exposed to normoxia or IR in the absence or presence of 1 μM ψεHSP90 (FIG. 5D).

[2] = biological target: T1, εPKC (Rattus norvegicus, UniProt P09216); assay: IR-induced mitochondrial translocation of εPKC (western blot of heart mitochondrial fraction); details: GA 5 μm during reperfusion; n=5; p<0.05
T1 construct: Rat heart ventricles were removed from the cannula and homogenized; from tissue; host or cells: Wistar rat heart ventricle; mitochondrial, IMM or plasma membrane fractions
T1 sequence (P09216 1-737): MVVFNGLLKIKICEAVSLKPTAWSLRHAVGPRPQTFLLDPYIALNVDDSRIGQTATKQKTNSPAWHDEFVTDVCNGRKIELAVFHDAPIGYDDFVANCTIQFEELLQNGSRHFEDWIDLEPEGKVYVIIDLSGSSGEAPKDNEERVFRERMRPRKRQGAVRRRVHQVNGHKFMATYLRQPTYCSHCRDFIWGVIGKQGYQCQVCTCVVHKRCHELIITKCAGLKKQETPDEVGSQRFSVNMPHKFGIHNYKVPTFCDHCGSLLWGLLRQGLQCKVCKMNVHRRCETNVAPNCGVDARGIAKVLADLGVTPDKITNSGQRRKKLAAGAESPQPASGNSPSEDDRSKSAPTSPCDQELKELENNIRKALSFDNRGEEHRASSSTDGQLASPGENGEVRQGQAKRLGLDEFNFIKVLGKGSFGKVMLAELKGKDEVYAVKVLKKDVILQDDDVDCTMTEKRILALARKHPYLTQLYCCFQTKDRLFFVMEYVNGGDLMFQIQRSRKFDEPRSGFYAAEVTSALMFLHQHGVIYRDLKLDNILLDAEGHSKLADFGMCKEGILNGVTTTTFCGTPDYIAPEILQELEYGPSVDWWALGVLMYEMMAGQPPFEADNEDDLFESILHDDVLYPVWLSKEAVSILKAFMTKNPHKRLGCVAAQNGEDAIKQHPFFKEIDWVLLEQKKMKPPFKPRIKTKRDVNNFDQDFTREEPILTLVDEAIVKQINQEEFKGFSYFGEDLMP
Method: as §1
Rat heart ventricles were removed from the cannula and homogenized in ice-cold mannitol-sucrose buffer (210 mM mannitol, 70 mM sucrose, 5 mM MOPS and 1 mM EDTA containing Sigma Protease Inhibitor 1 and Sigma Phosphatase Inhibitors 1 and 2, added per manufacturer's instructions) The resultant homogenate was filtered through gauze and centrifuged at 700 g for 5 minutes to pellet nuclei and cellular debris. […] Mitochondrial purity was also assessed by electron microscopic analysis. Protein concentration was determined by Bradford assay and 10 μg protein separated on a 12% SDS-PAGE gel and transferred to nitrocellulose. PKC translocation was measured using antibodies raised against εPKC and δPKC with mitochondrial (ANT) and cytosolic (GAPDH) markers used to ensure equal sample loading of the mitochondrial and cytosolic fractions, respectively. […]
During reperfusion, ischemia-induced cell damage was determined by measuring the activity of creatine phosphokinase (CPK) in the coronary perfusate, carried out using a standard assay kit (Equal Diagnostics, CT, USA). […] Translocation of εPKC and the related isoform δPKC to the mitochondria and plasma membrane was determined by western blotting using εPKC and δPKC antibodies (Santa Cruz Biotechnology) (FIG. 5C). […]

## COC1=C2C[C@@H](C)C[C@H](OC)[C@H](O)[C@@H](C)/C=C(\C)[C@H](OC(N)=O)[C@@H](OC)/C=C\C=C(/C)C(=O)NC(=CC1=O)C2=O [GA, geldanamycin]
[1]; IR (35 min ischemia, 15 min reperfusion) with 5 μM GA during reperfusion, versus IR alone, n=7, p<0.05
  increase in CPK release: 176%
[1]; normoxic hearts, 5 μm or 10 μm GA
  effect on CPK release in the absence of IR injury: no effect
[2]
  block of IR-induced translocation of εPKC to the mitochondrial fraction: 54%

Reference: patent publication US20100048482A1, “COMPOSITIONS AND METHODS FOR MODULATING EPSILON PROTEIN KINASE C-MEDIATED CYTOPROTECTION” (Board of Trustees of the Leland Stanford Junior University, priority 2008, published 2010)
